According to PubChem BioAssay AID1963968 (Molecular Pharmacology Branch, DTP, NCI, 2024):

Tested on: 945468-187-T-J3-PDC spheroids with HUVEC/MSC, viability
Test: Anticancer human tumor 945468-187-T-J3-PDC patient-derived rectal carcinoma cell line growth inhibition [PI3K]
Settings: for IC50: curve of first compound; for viability, T/C: stronger effect = lower value
Procedure, shortened: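 Three cell types, namely tumor cells, endothelial cells and mesenchymal stem cells, formed each spheroid. Combinations with four PI3K inhibitors were screened at clinically achievable concentrations decreasing by half-log, and spheroid viability was recorded.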

[1] = second compound 0.0316 µM, first compound 0.0316 µM
[2] = second compound 0.0316 µM, first compound 0.1 µM
[3] = second compound 0.0316 µM, first compound 0.316 µM
[4] = second compound 0.0316 µM, first compound 1 µM
[5] = second compound 0.0316 µM, first compound 3.16 µM
[6] = second compound 0.0316 µM, first compound 10 µM
[7] = second compound 0.1 µM, first compound 0.0316 µM
[8] = second compound 0.1 µM, first compound 0.1 µM
[9] = second compound 0.1 µM, first compound 0.316 µM
[10] = second compound 0.1 µM, first compound 1 µM
[11] = second compound 0.1 µM, first compound 3.16 µM
[12] = second compound 0.1 µM, first compound 10 µM
[13] = second compound 0.316 µM, first compound 0.0316 µM
[14] = second compound 0.316 µM, first compound 0.1 µM
[15] = second compound 0.316 µM, first compound 0.316 µM
[16] = second compound 0.316 µM, first compound 1 µM
[17] = second compound 0.316 µM, first compound 3.16 µM
[18] = second compound 0.316 µM, first compound 10 µM
[19] = second compound 1 µM, first compound 0.0316 µM
[20] = second compound 1 µM, first compound 0.1 µM
[21] = second compound 1 µM, first compound 0.316 µM
[22] = second compound 1 µM, first compound 1 µM
[23] = second compound 1 µM, first compound 3.16 µM
[24] = second compound 1 µM, first compound 10 µM
[25] = second compound 3.16 µM, first compound 0.0316 µM
[26] = second compound 3.16 µM, first compound 0.1 µM
[27] = second compound 3.16 µM, first compound 0.316 µM
[28] = second compound 3.16 µM, first compound 1 µM
[29] = second compound 3.16 µM, first compound 3.16 µM
[30] = second compound 3.16 µM, first compound 10 µM
[31] = second compound 10 µM, first compound 0.0316 µM
[32] = second compound 10 µM, first compound 0.1 µM
[33] = second compound 10 µM, first compound 0.316 µM
[34] = second compound 10 µM, first compound 1 µM
[35] = second compound 10 µM, first compound 3.16 µM
[36] = second compound 10 µM, first compound 10 µM
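Further: spheroids exposed to agents for 7 days before viability read.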
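Wherever viability, T/C is given: 100% = DMSO vehicle control viability.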

## C#Cc1c(F)ccc2cc(O)cc(-c3ncc4c(N5CC6CCC(C5)N6)nc(OCC56CCCN5CC(F)C6)nc4c3F)c12 (stereo not drawn) + Cc1nc(NC(=O)N2CCCC2C(N)=O)sc1-c1ccnc(C(C)(C)C(F)(F)F)c1
Second compound 0.0316 µM
  IC50: > 10 µM
Second compound 0.1 µM
  IC50: > 10 µM
Second compound 0.316 µM
  IC50: > 10 µM
Second compound 1 µM
  IC50: > 10 µM
Second compound 3.16 µM
  IC50: 7.25 µM
Second compound 10 µM
  IC50: 0.464 µM
[1]
  viability, T/C: 96.8%
[2]
  viability, T/C: 101%
[3]
  viability, T/C: 95.4%
[4]
  viability, T/C: 107%
[5]
  viability, T/C: 127%
[6]
  viability, T/C: 119%
[7]
  viability, T/C: 105%
[8]
  viability, T/C: 115%
[9]
  viability, T/C: 101%
[10]
  viability, T/C: 113%
[11]
  viability, T/C: 132%
[12]
  viability, T/C: 115%
[13]
  viability, T/C: 109%
[14]
  viability, T/C: 105%
[15]
  viability, T/C: 97.6%
[16]
  viability, T/C: 113%
[17]
  viability, T/C: 134%
[18]
  viability, T/C: 118%
[19]
  viability, T/C: 114%
[20]
  viability, T/C: 110%
[21]
  viability, T/C: 109%
[22]
  viability, T/C: 112%
[23]
  viability, T/C: 127%
[24]
  viability, T/C: 106%
[25]
  viability, T/C: 107%
[26]
  viability, T/C: 110%
[27]
  viability, T/C: 111%
[28]
  viability, T/C: 103%
[29]
  viability, T/C: 80.9%
[30]
  viability, T/C: 38%
[31]
  viability, T/C: 70.4%
[32]
  viability, T/C: 59.9%
[33]
  viability, T/C: 50%
[34]
  viability, T/C: 47.8%
[35]
  viability, T/C: 26.9%
[36]
  viability, T/C: 9.1%

## C=CC(=O)N1CCN(c2nc(=O)n(-c3c(C)ccnc3C(C)C)c3nc(-c4c(O)cccc4F)c(F)cc23)C(C)C1 (stereo not drawn) + Cc1nc(NC(=O)N2CCCC2C(N)=O)sc1-c1ccnc(C(C)(C)C(F)(F)F)c1
Second compound 0.0316 µM
  IC50: > 10 µM
Second compound 0.1 µM
  IC50: > 10 µM
Second compound 0.316 µM
  IC50: > 10 µM
Second compound 1 µM
  IC50: > 10 µM
Second compound 3.16 µM
  IC50: > 10 µM
Second compound 10 µM
  IC50: > 10 µM
[1]
  viability, T/C: 106%
[2]
  viability, T/C: 108%
[3]
  viability, T/C: 102%
[4]
  viability, T/C: 108%
[5]
  viability, T/C: 110%
[6]
  viability, T/C: 114%
[7]
  viability, T/C: 108%
[8]
  viability, T/C: 99.8%
[9]
  viability, T/C: 103%
[10]
  viability, T/C: 109%
[11]
  viability, T/C: 114%
[12]
  viability, T/C: 99%
[13]
  viability, T/C: 103%
[14]
  viability, T/C: 102%
[15]
  viability, T/C: 100%
[16]
  viability, T/C: 115%
[17]
  viability, T/C: 105%
[18]
  viability, T/C: 98.6%
[19]
  viability, T/C: 126%
[20]
  viability, T/C: 118%
[21]
  viability, T/C: 102%
[22]
  viability, T/C: 123%
[23]
  viability, T/C: 122%
[24]
  viability, T/C: 107%
[25]
  viability, T/C: 110%
[26]
  viability, T/C: 109%
[27]
  viability, T/C: 112%
[28]
  viability, T/C: 108%
[29]
  viability, T/C: 113%
[30]
  viability, T/C: 115%
[31]
  viability, T/C: 71.1%
[32]
  viability, T/C: 64.5%
[33]
  viability, T/C: 58.3%
[34]
  viability, T/C: 67.5%
[35]
  viability, T/C: 90.8%
[36]
  viability, T/C: 79.1%

## CC(Cn1ccc(-c2ccc(C#N)c(Cl)c2)n1)NC(=O)c1cc(C(C)O)[nH]n1 (stereo not drawn) + Cc1nc(NC(=O)N2CCCC2C(N)=O)sc1-c1ccnc(C(C)(C)C(F)(F)F)c1
Second compound 0.0316 µM
  IC50: > 10 µM
Second compound 0.1 µM
  IC50: > 10 µM
Second compound 0.316 µM
  IC50: > 10 µM
Second compound 1 µM
  IC50: > 10 µM
Second compound 3.16 µM
  IC50: > 10 µM
Second compound 10 µM
  IC50: > 10 µM
[1]
  viability, T/C: 99.7%
[2]
  viability, T/C: 104%
[3]
  viability, T/C: 90.9%
[4]
  viability, T/C: 93.4%
[5]
  viability, T/C: 102%
[6]
  viability, T/C: 92.7%
[7]
  viability, T/C: 106%
[8]
  viability, T/C: 101%
[9]
  viability, T/C: 91.9%
[10]
  viability, T/C: 109%
[11]
  viability, T/C: 106%
[12]
  viability, T/C: 96.9%
[13]
  viability, T/C: 95.6%
[14]
  viability, T/C: 102%
[15]
  viability, T/C: 93.8%
[16]
  viability, T/C: 108%
[17]
  viability, T/C: 98.8%
[18]
  viability, T/C: 88.1%
[19]
  viability, T/C: 112%
[20]
  viability, T/C: 109%
[21]
  viability, T/C: 98.1%
[22]
  viability, T/C: 112%
[23]
  viability, T/C: 100%
[24]
  viability, T/C: 98.8%
[25]
  viability, T/C: 104%
[26]
  viability, T/C: 102%
[27]
  viability, T/C: 92.5%
[28]
  viability, T/C: 91.7%
[29]
  viability, T/C: 101%
[30]
  viability, T/C: 104%
[31]
  viability, T/C: 65.3%
[32]
  viability, T/C: 58.1%
[33]
  viability, T/C: 53.7%
[34]
  viability, T/C: 60.2%
[35]
  viability, T/C: 54.4%
[36]
  viability, T/C: 63%

## CC1(C)CCC(Nc2ncc(C(F)(F)F)c(-c3c[nH]c4c(P(C)(C)=O)c(C#N)ccc34)n2)CN1 (stereo not drawn) + Cc1nc(NC(=O)N2CCCC2C(N)=O)sc1-c1ccnc(C(C)(C)C(F)(F)F)c1
Second compound 0.0316 µM
  IC50: 5.65 µM
Second compound 0.1 µM
  IC50: 5.41 µM
Second compound 0.316 µM
  IC50: 5.06 µM
Second compound 1 µM
  IC50: 4.44 µM
Second compound 3.16 µM
  IC50: 1.9 µM
Second compound 10 µM
  IC50: 0.841 µM
[1]
  viability, T/C: 81.7%
[2]
  viability, T/C: 84.6%
[3]
  viability, T/C: 72.8%
[4]
  viability, T/C: 85.5%
[5]
  viability, T/C: 101%
[6]
  viability, T/C: 15.4%
[7]
  viability, T/C: 91.4%
[8]
  viability, T/C: 75.8%
[9]
  viability, T/C: 79%
[10]
  viability, T/C: 79.9%
[11]
  viability, T/C: 84.4%
[12]
  viability, T/C: 13.2%
[13]
  viability, T/C: 82.5%
[14]
  viability, T/C: 75.5%
[15]
  viability, T/C: 65.4%
[16]
  viability, T/C: 75.9%
[17]
  viability, T/C: 85%
[18]
  viability, T/C: 11.2%
[19]
  viability, T/C: 107%
[20]
  viability, T/C: 76.7%
[21]
  viability, T/C: 72.2%
[22]
  viability, T/C: 86.7%
[23]
  viability, T/C: 68%
[24]
  viability, T/C: 7.36%
[25]
  viability, T/C: 78.5%
[26]
  viability, T/C: 72.2%
[27]
  viability, T/C: 75.5%
[28]
  viability, T/C: 54.8%
[29]
  viability, T/C: 44.5%
[30]
  viability, T/C: 5.2%
[31]
  viability, T/C: 65.1%
[32]
  viability, T/C: 60%
[33]
  viability, T/C: 50.6%
[34]
  viability, T/C: 44.5%
[35]
  viability, T/C: 40.2%
[36]
  viability, T/C: 2.06%
